Measured values taken from patent publication US5852033A, “Methods of treatment using lamellarin-class alkaloids” (Pharma Mar, s.a., priority 1995, dated 1998).
Values after ≈ are worked out from the molar mass of the structure shown. Like-named read-outs stand apart in the source and are kept apart here.

What was measured:
P-388/SCHABEL (MDR) = experiment: LAMELLARINS TOXICITY TO RESISTANT (MDR) TUMOR CELL LINE P-388/SCHABEL (MTT); format: cell-based; conditions: Mus musculus, P388, 72 h; P-388/SCHABEL (MDR), MTT, three days; read-out: ACTIVITY: IC50
Experimental: (§1) Sensitive and MDR cells were maintained, in logarithmic phase of growth, in Eagle's Minimum Essential Medium, with Earle's Balanced Salts, with non-essential amino acids, with 2.0 mM L-glutamine, without sodium bicarbonate (EMEM/neaa), supplemented with 5% Fetal Calf Serum (FCS), 10^-2 M sodium bicarbonate and 0.1 g/l penicillin G+0.1 g/l streptomycin sulfate.
(§2) In Vitro cell cytotoxicity was determined using the 3-[4,5-dimethylthiazol-2-yl]-2,5-dipheniltetrazolium bromide (MTT), from Sigma Ref:M-2128, for quantitative measurement of cell growth and viability. See, T. Mosmann, "Rapid Colorimetric Assay for Cellular Growth and Survival: Application to Proliferation and Cytotoxicity Assays," Journal of Immunological Methods, 65: 55-63 (1983).
(§3) The tumor cell lines employed have been: P-388 (ATCC CCL 46), suspension culture of a lymphoid neoplasm from a DBA/2 mouse and its corresponding MDR cell line P-388/SCHABEL; CHOB1 (ATCC CCL 16), monolayer culture of chinese hamster ovary and its corresponding MDR cell line CHOC5. See, Rauscher Ill, et al., "Characterization of Auromycin-Resistant Hamster Cell Mutants that Display a Multidrug Resistance Phenotype," Molecular Pharmacology, 38: 198-206 (1990).
(§4) This form of assay employs 96-well cell culture plates […]. Cells were seeded into wells at 1×10^3 cells per well in 100 μl aliquots of EMEM 5% FCS containing different concentrations of the corresponding lamellarins and other compounds (standards) to be tested. Two separate sets of cultures without drugs were seeded, one as control of growth to ensure that cells remained in exponential phase of growth, and another without cells as control of medium. All determinations were carried out in duplicate.
(§5) After three days of incubation at 37° C., 10% CO2 in a 98% humid atmosphere, 150 μg of MTT is added to each well in 50 μl aliquots of assay medium. Plates were incubated for an additional 4 hours and 100 μl aliquots of isopropanol were added to each well. The broad absorption spectrum for the isopropanol solution of this crystal is optimal at 570 nm. Optical density values were obtained with the help of a Dynatech microplate reader and the results of the assay were used to generate graphics from which IC50 was calculated; i.e., wherein the IC50 is the test concentration which produces 50% cell growth inhibition.

CHOC5 (MDR) = experiment: LAMELLARINS TOXICITY TO RESISTANT (MDR) TUMOR CELL LINE CHOC5 (MTT); format: cell-based, chinese hamster; conditions: Cricetulus griseus, 72 h; CHOC5 (MDR), MTT, three days; read-out: ACTIVITY: IC50
Experimental: as §1, §2, §3, §4, §5

P-388 = experiment: LAMELLARINS TOXICITY TO SENSITIVE TUMOR CELL LINE P-388 (MTT); format: cell-based; conditions: Mus musculus, P388, 72 h; P-388, sensitive, MTT, three days; read-out: ACTIVITY: IC50
Experimental: as §1, §2, §3, §4, §5

CHOB1 = experiment: LAMELLARINS TOXICITY TO SENSITIVE TUMOR CELL LINE CHOB1 (MTT); format: cell-based, chinese hamster; conditions: Cricetulus griseus, 72 h; CHOB1, sensitive, MTT, three days; read-out: ACTIVITY: IC50
Experimental: as §1, §2, §3, §4, §5

CHOC5 = experiment: Adriamycin toxicity to resistant cells (MDR) in presence or absence of reversing agents, CHOC5; format: cell-based, chinese hamster; conditions: Cricetulus griseus; control, Adriamycin only, R.A. 0 μg/ml
Experimental: (§6) Gain of Sensitivity (G.S.) = IC50 Control/IC50 R.A.
as §1, §4
(§7) Plates were incubated for an additional 4 hours and 100 μl aliquots of isopropanol were added to each well. The broad absorption spectrum for the isopropanol solution of this crystal is optimal at 570 nm.

P-388/SCHABEL = experiment: Adriamycin toxicity to resistant cells (MDR) in presence or absence of reversing agents, P-388/SCHABEL; format: cell-based; conditions: Mus musculus, P388; control, Adriamycin only, R.A. 0 μg/ml
Experimental: as §6, §1, §4, §7

A549 = experiment: Lamellarin in vitro activity vs. tumor cell lines, A549; conditions: Homo sapiens
P388 = experiment: Lamellarin in vitro activity vs. tumor cell lines, P388; conditions: Mus musculus
HT-29 = experiment: Lamellarin in vitro activity vs. tumor cell lines, HT-29; format: cell-based; conditions: Homo sapiens; HT-29, Table IV
MLR = experiment: Immunomodulatory activity (LcV:MLR); format: cell-based; conditions: in words
[1] = A549, read-out: cytotoxicity IC50
[2] = P388, read-out: cytotoxicity IC50

| SMILES | IC50 (P-388/SCHABEL (MDR)) [µg/mL] | IC50 (CHOC5 (MDR)) [µg/mL] | IC50 (P-388) [µg/mL] | IC50 (CHOB1) [µg/mL] | IC50 (CHOC5) [µg/mL] | IC50 (P-388/SCHABEL) [µg/mL] | IC50 (A549; A549) [µg/mL] | IC50 (A549; [1]) [µg/mL] | IC50 (P388; P388) [µg/mL] | IC50 (P388; [2]) [µg/mL] | IC50 (HT-29) [µg/mL] | immunomodulatory activity (MLR) |
| --- | --- | --- | --- | --- | --- | --- | --- | --- | --- | --- | --- | --- |
| COc1cc(-c2c3n(c4c(=O)oc5cc(OC(C)=O)c(OC)cc5c24)CCc2c-3cc(OC)c(OC)c2OC(C)=O)ccc1OC(C)=O [Lamellarin K-triacetate] | 0.1 (≈ 0.152 µM) | 0.1 (≈ 0.152 µM) | 0.06 (≈ 0.0912 µM) | 0.1 (≈ 0.152 µM) |  |  |  |  |  |  |  |  |
| COc1cccc2c1C(=O)c1c(O)c3c(c(O)c1C2=O)C[C@@](O)(C(=O)CO)C[C@@H]3O[C@H]1C[C@H](N)[C@H](O)[C@H](C)O1 [Adriamycin, reference compound] | 1.2 (≈ 2.21 µM) | 3 (≈ 5.52 µM) | 0.15 (≈ 0.276 µM) | 0.15 (≈ 0.276 µM) | 3 | 1.2 |  |  |  |  |  |  |
| COc1cc(-c2c3n(c4c(=O)oc5cc(O)c(OC)cc5c24)C(O)Cc2c-3cc(OC)c(OC)c2OC)ccc1O (stereo not shown) [Lamellarin A] | 0.5 (≈ 0.89 µM) | 0.4 (≈ 0.712 µM) | 0.5 (≈ 0.89 µM) | 0.2 (≈ 0.356 µM) |  |  |  |  |  |  |  |  |
| COc1cc(-c2c3c4cc(OC)c(OC(C)=O)cc4oc(=O)c3n3ccc4c(OC(C)=O)c(OC)c(OC)cc4c23)ccc1OC(C)=O [Lamellarin M-triacetate] | 0.7 (≈ 1.07 µM) | 2 (≈ 3.05 µM) | 0.6 (≈ 0.915 µM) | 0.5 (≈ 0.763 µM) |  |  |  |  |  |  |  |  |
| COc1cc2c(cc1O)oc(=O)c1c2c(-c2ccc(OC)c(OC)c2)c2n1CCc1c-2cc(OC)c(OC)c1OC [Lamellarin I] | 2.5 (≈ 4.47 µM) | 1 (≈ 1.79 µM) | 2.5 (≈ 4.47 µM) | 0.2 (≈ 0.357 µM) |  |  | 1 (≈ 1.79 µM) | ~0.25 (≈ 0.447 µM) | 1 (≈ 1.79 µM) | ~0.25 (≈ 0.447 µM) | 2 (≈ 3.57 µM) |  |
| COc1cc(-c2c3c4cc(OC)c(OC(C)=O)cc4oc(=O)c3n3ccc4cc(OC(C)=O)c(OC)cc4c23)ccc1OC(C)=O [Lamellarin D-triacetate] | 0.09 (≈ 0.144 µM) | 0.04 (≈ 0.0639 µM) | 0.07 (≈ 0.112 µM) | 0.03 (≈ 0.048 µM) |  |  |  |  |  |  |  |  |
| COc1ccc(-c2c3n(c4c(=O)oc5cc(O)c(OC)cc5c24)CCc2cc(O)c(OC)cc2-3)cc1O [Lamellarin L] | 0.7 (≈ 1.4 µM) | 0.6 (≈ 1.2 µM) | 0.6 (≈ 1.2 µM) | 0.4 (≈ 0.798 µM) |  |  | 0.25 (≈ 0.499 µM) | ~0.25 (≈ 0.499 µM) | 0.25 (≈ 0.499 µM) | ~0.25 (≈ 0.499 µM) | 2 (≈ 3.99 µM) | moderate immunomodulatory activity |
| COc1ccc(CCN(C)CCCC(C#N)(c2ccc(OC)c(OC)c2)C(C)C)cc1OC (stereo not shown) [Verapamil, reference compound] | 10 (≈ 22 µM) | 4 (≈ 8.8 µM) | 10 (≈ 22 µM) | 9 (≈ 19.8 µM) |  |  |  |  |  |  |  |  |
| COc1ccc(-c2c3n(c4c(=O)oc5cc(OC)c(OC)cc5c24)CCc2c-3cc(OC)c(OC)c2OC)cc1OC [Lamellarin I-Methylate] | 3 (≈ 5.23 µM) | 2.5 (≈ 4.36 µM) | 2.5 (≈ 4.36 µM) | 0.5 (≈ 0.872 µM) |  |  |  |  |  |  |  |  |
